According to patent US20060009512A1, “5-ht 1b/1d receptor agonists for the treatment of headache resulting from administering an endothelin receptor antagonist” (priority 2002, published 2006):
Entries after “also recorded” stand apart in the source; their conditions may differ.

Assays:
[1] = Treatment of ZD4054 induced headache in subjects of the clinical study (zolmitriptan, standard analgesics); type: in vivo, man; details: for effect of standard analgesic therapy on ZD4054 induced headaches: subjects with ZD4054 induced headache
Description: Based on citations by Carducci (Carducci, 2002) a number of “standard analgesic therapies” were tried, including paracetamol, ibuprofen and codeine to treat the ZD4054 induced headaches.
(§1) A study was undertaken to assess the safety and tolerability of multiple doses of ZD4054 in healthy young volunteers at dose levels of 100 mg, 50 mg and 25 mg daily.
(§2) At the 100 mg dose level 16 volunteers participated (12 active and 4 placebo). They received a 100 mg ZD4054 or placebo single dose and one week later commenced daily dosing. Dosing was stopped within 3-5 days of continuous dosing in the majority of ZD4054 treated subjects due to headache. Of the 12 subjects receiving ZD4054, 10 were additionally given zolmitriptan (2.5 mg tablets) at some stage (in addition to paracetamol and in some cases ibuprofen).
(§3) Note: all subjects received paracetamol (1 g every 4 hours for the first 16 hours post the first dose of ZD4054) on the first day of multiple dosing. Analgesics were given as required.
An explanation of CTC grades which stands for Common Toxicity Criteria, can be found in a document from the National Institute of Health, Version 2.0, DCTD, NCI, NIH, DHHS March 1998.

[2] = cancer patients, doses of 20 mg and above; cited from earlier work
[3] = man, recommended dose of 125-250 mg bid; cited from earlier work
[4] = Clinical study of safety and tolerability of multiple doses of ZD4054 in healthy young volunteers; type: in vivo, man
Description: as §1, §2, §3

In the case of `CC(C)Cc1ccc(C(C)C(=O)O)cc1` (centres unmarked) [ibuprofen], the “effect of standard analgesic therapy on ZD4054 induced headaches” value (from here on “effect of standard analgesic therapy”) [1] is reported as “several subjects still reported persistent headache”.
In the case of `COc1ccc2c3c1O[C@H]1[C@@H](O)C=C[C@H]4[C@@H](C2)N(C)CC[C@@]341` [codeine], the “effect of standard analgesic therapy” value [1] is reported as “several subjects still reported persistent headache”.
For `CCCCN(CCCC)C(=O)CN1C[C@H](c2ccc3c(c2)OCO3)[C@@H](C(=O)O)[C@@H]1c1ccc(OC)cc1` [Atrasentan], the incidence of headache [2] is listed as 50-100%.
With `CC(=O)Nc1ccc(O)cc1` [paracetamol] the improvement of headache ([1]; Subject 7, CTC grade 2 headache, second day of multiple dosing) was “little improvement”, the “headache grade despite treatment” value ([1]; Subject 10, second day, increased from CTC grade 1) was 3 CTC grade and the “effect of standard analgesic therapy” value [1] was “several subjects still reported persistent headache”.
With `CN(C)CCc1c[nH]c2ccc(C[C@H]3COC(=O)N3)cc12` [zolmitriptan] the “headache grade after treatment” value ([1]; Subject 7, from CTC grade 2 on second day of multiple dosing, 2.5 mg plus 2.5 mg 50 mins later, 1-1.5 hours later) was 1 CTC grade, the “headache grade after treatment” value ([1]; Subject 10, day 3, from CTC grade 3, 2.5 mg plus 2.5 mg 50 mins later, 2.5 h later) was 1 CTC grade and the “headache grade after treatment” value ([1]; Subject 10, second day, from CTC grade 3, 2.5 mg) was 2 CTC grade. For the same compound, the “patients noting at least at one stage that their headache was alleviated” value ([1]; of 10 subjects given zolmitriptan 2.5 mg tablets, ZD4054 100 mg) was “Seven” and the “effect on intensity/severity of ZD4054 induced headache” value ([1]; subjects in which standard analgesic therapy had failed, 2.5-5 mg orally) was “effective in reducing the intensity of ZD4054 induced headaches in some subjects; also recorded: effective in reducing the severity of headache”.
In the case of `COc1ccccc1Oc1c(NS(=O)(=O)c2ccc(C(C)(C)C)cc2)nc(-c2ncccn2)nc1OCCO` [Bosentan], the “subjects with induced headaches” value [3] is given as 22%.
With `COc1nc(C)cnc1NS(=O)(=O)c1cccnc1-c1ccc(-c2nnco2)cc1` [ZD4054, N-(3-methoxy-5-methylpyrazin-2-yl)-2-(4-[1,3,4-oxadiazol-2-yl]phenyl)pyridine-3-sulphonamide] the “time of continuous dosing until dosing was stopped due to headache” value ([4]; 100 mg daily, majority of ZD4054 treated subjects) was 3 to 5 days and the “induction of headache in man” value ([4]; clinical testing in man) was “induces headaches in man”.
